Where two headings read alike, the source gives them in different places.
Tests used:
[1] = tested on: Mycosphaerella graminicola; Anamorph: Septoria tritici; Bayer Code SEPTTR; assay: Evaluation of fungicidal activity: leaf blotch of wheat, greenhouse wheat plants inoculated with Septoria tritici; format: in vivo; conditions: Zymoseptoria tritici
Protocol: Evaluation of Fungicidal Activity: Leaf Blotch of Wheat (Mycosphaerella graminicola; Anamorph: Septoria tritici; Bayer Code […]) Wheat plants (variety Yuma) were grown from seed in a greenhouse in 50% mineral soil/50% soil-less Metro mix until the first leaf was fully emerged, with 7-10 seedlings per pot. These plants were inoculated with an aqueous spore suspension of Septoria tritici either prior to or after fungicide treatments. After inoculation the plants were kept in 100% relative humidity (one day in a dark dew chamber followed by two to three days in a lighted dew chamber) to permit spores to germinate and infect the leaf. The plants were then transferred to a greenhouse for disease to develop. The following table presents the activity of typical compounds of the present disclosure when evaluated in these experiments. The effectiveness of the test compounds in controlling disease was determined by assessing the severity of disease on treated plants, then converting the severity to percent control based on the level of disease on untreated, inoculated plants. In each case of Table II the rating scale is as follows: […]

[2] = 24 h, One-Day Protectant (1DP), 100 ppm, wheat leaf blotch, percent control vs untreated inoculated plants, read-out: SEPTTR 100 PPM 1DP (% Disease Control rating)
[3] = 72 h, Three-Day Curative (3DC), 100 ppm, wheat leaf blotch, percent control vs untreated inoculated plants, read-out: SEPTTR 100 PPM 3DC (% Disease Control rating)

In the case of `CC(=O)n1cc(F)c(/N=C/N(C)C)nc1=O` [Compound 1, N′-(1-acetyl-5-fluoro-2-oxo-1,2-dihydropyrimidin-4-yl)-N,N-dimethylformamidine], the pest or weed control at 100 ppm [1, 2] is reported as 76 to 100%, the pest or weed control at 100 ppm [1, 3] is reported as 76 to 100% and the melting point is reported as 125 to 130 °C (dec.).

For `Cc1cccc(C)c1C(=O)n1cc(F)c(/N=C/N(C)C)nc1=O` [Compound 2, N′-[1-(2,6-dimethylbenzoyl)-5-fluoro-2-oxo-1,2-dihydro-pyrimidin-4-yl]-N,N-dimethylformamidine], the pest or weed control at 100 ppm [1, 2] was 76 to 100%, the pest or weed control at 100 ppm [1, 3] was 76 to 100% and the melting point was 120 to 150 °C.

`CN(C)/C=N/c1nc(=O)n(C(=O)c2c(Cl)cccc2Cl)cc1F` [Compound 3, N′-[1-(2,6-dichlorobenzoyl)-5-fluoro-2-oxo-1,2-dihydro-pyrimidin-4-yl]-N,N-dimethylformamidine] showed a pest or weed control at 100 ppm ([1]; 24 h, read-out: SEPTTR 100 PPM 1DP (% Disease Control rating)) of 51 to 75%, a pest or weed control at 100 ppm ([1]; 72 h, read-out: SEPTTR 100 PPM 3DC (% Disease Control rating)) of 76 to 100% and a melting point of 185 to 187 °C.

`CN(C)/C=N/c1nc(=O)n(C(=O)c2ccc(Cl)cc2Cl)cc1F` [Compound 4] gave a pest or weed control at 100 ppm [1, 2] of 76 to 100% and a pest or weed control at 100 ppm [1, 3] of 76 to 100%.

For `Cc1ccc(C(=O)n2cc(F)c(/N=C/N(C)C)nc2=O)c(C)c1` [Compound 5], the pest or weed control at 100 ppm [1, 2] was 76 to 100% and the pest or weed control at 100 ppm [1, 3] was 76 to 100%.

For `CC(C)=CC(=O)n1cc(F)c(/N=C/N(C)C)nc1=O` [Compound 6], the pest or weed control at 100 ppm [1, 2] was 76 to 100%, the pest or weed control at 100 ppm [1, 3] was 76 to 100% and the melting point was 128 to 130 °C.

Work on `CN(C)/C=N/c1nc(=O)n(C(=O)c2ccccc2)cc1F` [Compound 7] yielded a pest or weed control at 100 ppm [1, 2] of 76 to 100%, a pest or weed control at 100 ppm [1, 3] of 76 to 100% and a melting point of 137.3 to 139 °C.

`COc1ccc(C(=O)n2cc(F)c(/N=C/N(C)C)nc2=O)cc1` [Compound 8] gave a pest or weed control at 100 ppm [1, 2] of 76 to 100%, a pest or weed control at 100 ppm [1, 3] of 76 to 100% and a melting point of 126.2 to 128.3 °C.

`Cc1ccc(C(=O)n2cc(F)c(/N=C/N(C)C)nc2=O)cc1` [Compound 9] showed a pest or weed control at 100 ppm [1, 2] of 76 to 100%, a pest or weed control at 100 ppm [1, 3] of 76 to 100% and a melting point of 128.8 to 130.5 °C.

Molecule `CN(C)/C=N/c1nc(=O)n(C(=O)c2cccs2)cc1F` [Compound 10] has a pest or weed control at 100 ppm [1, 2] of 76 to 100%, a pest or weed control at 100 ppm [1, 3] of 76 to 100% and a melting point of 154.8 to 156.5 °C.

For `CN(C)/C=N/c1nc(=O)n(C(=O)c2ccc(F)c(F)c2)cc1F` [Compound 11], the pest or weed control at 100 ppm [1, 2] was 76 to 100%, the pest or weed control at 100 ppm [1, 3] was 76 to 100% and the melting point was 130 to 132 °C.

Work on `CN(C)/C=N/c1nc(=O)n(C(=O)c2cccc(Cl)c2)cc1F` [Compound 12] yielded a melting point of 95.3 to 97.7 °C.

In the case of `Nc1nc(=O)n(C(=O)c2cc(F)cc(F)c2)cc1F` [Compound 13, 4-amino-1-(3,5-difluorobenzoyl)-5-fluoro-1H-pyrimidin-2-one], the pest or weed control at 100 ppm [1, 2] is reported as 76 to 100% and the pest or weed control at 100 ppm [1, 3] is reported as 76 to 100%.

With `Nc1nc(=O)n(C(=O)c2ccccc2)cc1F` [Compound 14] the pest or weed control at 100 ppm [1, 2] was 76 to 100%, the pest or weed control at 100 ppm [1, 3] was 76 to 100% and the melting point was 213.2 to 215.3 °C.

With `COc1ccc(C(=O)n2cc(F)c(N)nc2=O)cc1` [Compound 15] the pest or weed control at 100 ppm [1, 2] was 76 to 100%, the pest or weed control at 100 ppm [1, 3] was 76 to 100% and the melting point was 257.9 to 259.6 °C.

For `Nc1nc(=O)n(C(=O)c2ccccc2F)cc1F` [Compound 16], the pest or weed control at 100 ppm [1, 2] was 76 to 100%, the pest or weed control at 100 ppm [1, 3] was 76 to 100% and the melting point was 228.3 to 229.7 °C.

For `Cc1ccc(C(=O)n2cc(F)c(N)nc2=O)cc1` [Compound 17], the pest or weed control at 100 ppm [1, 2] was 76 to 100%, the pest or weed control at 100 ppm [1, 3] was 76 to 100% and the melting point was 257 to 259.5 °C.

For `COc1ccc(C(=O)n2cc(F)c(N)nc2=O)cc1OC` [Compound 18], the pest or weed control at 100 ppm [1, 2] was 76 to 100%, the pest or weed control at 100 ppm [1, 3] was 76 to 100% and the melting point was 170 to 172 °C.

Work on `Nc1nc(=O)n(C(=O)c2ccsc2)cc1F` [Compound 19] yielded a pest or weed control at 100 ppm [1, 2] of 76 to 100%, a pest or weed control at 100 ppm [1, 3] of 76 to 100% and a melting point of 223.1 to 225.2 °C.

`Nc1nc(=O)n(C(=O)c2ccc(F)c(F)c2)cc1F` [Compound 20] showed a pest or weed control at 100 ppm [1, 2] of 76 to 100%, a pest or weed control at 100 ppm [1, 3] of 76 to 100% and a melting point of 150 to 152 °C.

`CC(=O)Nc1nc(=O)n(C(=O)c2ccc(C)cc2)cc1F` [Compound 21, N-(5-fluoro-1-(4-methylbenzoyl)-2-oxo-1,2-dihydropyrimidin-4-yl)acetamide] gave a melting point of 146.9 to 148.2 °C.

`CC(=O)Nc1nc(=O)n(C(=O)c2ccccc2)cc1F` [Compound 22] showed a melting point of 122.8 to 123.6 °C.

For `CC(=O)Nc1nc(=O)n(C(=O)c2cccc(Cl)c2)cc1F` [Compound 23], the melting point was 129.5 to 131 °C.

Reference: patent US8470839B2, “N1-acyl-5-fluoropyrimidinone derivatives” (Dow Agrosciences, LLC., priority 2009, dated 2013)
